Experimental data from patent US20260364184A1, “COMPOUND BASED ON OXOISOINDOLINYL-SUBSTITUTED TETRAHYDROPYRIMIDINE-DIONE AND USE THEREOF” (GLUETACS THERAPEUTICS (SHANGHAI) CO., LTD., priority 2023, published 2026).
Like-named read-outs stand apart in the source and are kept apart here.

Assays:
Format in all cases: cell-based
[1] = test system: Human breast cancer cell line (MDA-MB-231); assay: Inhibition of MDA-MB-231 cell proliferation (CellTiter luminescent viability); conditions: for inhibition at 0.01 µM: read-out: Inhibition Rate at 10 nM (%); for inhibition at 0.5 µM: read-out: Inhibition Rate at 500 nM (%)
Procedure: The tumor cells used herein were cultured in a cell culture medium listed in table 3 at 37 °C in an incubator with 5% CO2. Prior to experimentation, all cell lines used were correctly identified by STR profiling, and tested negative for mycoplasma contamination using a mycoplasma detection kit through routine screenings.
The IC50 values of the compounds of the present disclosure (including the compounds in Table 1, Table 2, and Examples 1-468) were determined using the CellTiter-Meiluncell Luminescent Cell Viability Assay Kit from Dalian Meilun Biotech Co., Ltd. The detailed procedure is as follows: Tumor cells were seeded in 96-well cell culture plates at the densities specified in Table 4. On the following day, the test compounds of the present disclosure were subjected to serial dilution. The dilution can be performed according to one of the following two methods: • (1) The first dilution method: The test compounds of the present disclosure (including the compounds in Table 1, Table 2, and Examples 1-468) were subjected to 5-fold serial dilutions starting from a highest concentration of 2000 μM, resulting in a total of 9 concentrations from high to low (2000, 400, 80, 16, 3.2, 0.64, 0.128, 0.0256, 0.00512 μM). Subsequently, 0.5 μL of the test compound dilution was transferred into the 96-well plate containing the cells, with each well containing 100 μL of cell culture medium. […] Into the 96-well plate, the diluted test compounds and corresponding detection reagents were added, resulting in final test compound concentrations of 500 nM and 10 nM, respectively. The experimental procedure is described below using the diluted 2 μM test compound as an example.
0.5 μL of the aforementioned diluted compound of the present disclosure (including the compounds in Table 1, Table 2, and Examples 1-468) was added to the seeded cells in 100 μL of medium, yielding a final test compound concentration of 10 nM. After the cells were treated with the compounds of the present disclosure for a specified period, the cell viability assay reagent was added to the culture medium according to the kit's instructions to determine cell viability. […] All controls were treated using the same procedure as the compounds of the present disclosure. The growth inhibition curves for the compounds of the present disclosure were plotted using Prism GraphPad software, and the IC50 values were calculated therefrom.

[2] = test system: Human Multiple myeloma cell line (MM.1S); assay: Inhibition of MM.1S cell proliferation (CellTiter luminescent viability); conditions: Homo sapiens, MM1.S, Table IG1, FAK inhibitor-based, 96 hours; for inhibition at 0.01 µM: 10 nM, read-out: Inhibition Rate at 10 nM (%); for inhibition at 0.5 µM: 500 nM, read-out: Inhibition Rate at 500 nM (%)
Procedure, shortened: (§1)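 Cells are seeded in 96-well plates, cultured at 37 °C, 5% CO2, and treated next day with 5-fold serial compound dilutions (stock series from 2000 μM; 0.5 μL into 100 μL medium). Viability is read by CellTiter-Meiluncell luminescence after the set exposure, and IC50 is taken from growth-inhibition curves.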

[3] = test system: Human myeloid monocytic leukemia cell line (MV-4-11); assay: Inhibition of MV-4-11 cell proliferation (CellTiter luminescent viability); conditions: Homo sapiens, MV4-11; for inhibition at 0.01 µM: read-out: Inhibition Rate at 10 nM (%); for inhibition at 0.5 µM: read-out: Inhibition Rate at 500 nM (%)
Procedure, shortened: as §1

[4] = target: T1, AR (Homo sapiens, UniProt P10275); assay: Western blot degradation of AR; conditions: LnCap Cell; 24 hours
T1 construct: expression of target proteins in cells; endogenous in cells
T1 sequence (P10275 1-920): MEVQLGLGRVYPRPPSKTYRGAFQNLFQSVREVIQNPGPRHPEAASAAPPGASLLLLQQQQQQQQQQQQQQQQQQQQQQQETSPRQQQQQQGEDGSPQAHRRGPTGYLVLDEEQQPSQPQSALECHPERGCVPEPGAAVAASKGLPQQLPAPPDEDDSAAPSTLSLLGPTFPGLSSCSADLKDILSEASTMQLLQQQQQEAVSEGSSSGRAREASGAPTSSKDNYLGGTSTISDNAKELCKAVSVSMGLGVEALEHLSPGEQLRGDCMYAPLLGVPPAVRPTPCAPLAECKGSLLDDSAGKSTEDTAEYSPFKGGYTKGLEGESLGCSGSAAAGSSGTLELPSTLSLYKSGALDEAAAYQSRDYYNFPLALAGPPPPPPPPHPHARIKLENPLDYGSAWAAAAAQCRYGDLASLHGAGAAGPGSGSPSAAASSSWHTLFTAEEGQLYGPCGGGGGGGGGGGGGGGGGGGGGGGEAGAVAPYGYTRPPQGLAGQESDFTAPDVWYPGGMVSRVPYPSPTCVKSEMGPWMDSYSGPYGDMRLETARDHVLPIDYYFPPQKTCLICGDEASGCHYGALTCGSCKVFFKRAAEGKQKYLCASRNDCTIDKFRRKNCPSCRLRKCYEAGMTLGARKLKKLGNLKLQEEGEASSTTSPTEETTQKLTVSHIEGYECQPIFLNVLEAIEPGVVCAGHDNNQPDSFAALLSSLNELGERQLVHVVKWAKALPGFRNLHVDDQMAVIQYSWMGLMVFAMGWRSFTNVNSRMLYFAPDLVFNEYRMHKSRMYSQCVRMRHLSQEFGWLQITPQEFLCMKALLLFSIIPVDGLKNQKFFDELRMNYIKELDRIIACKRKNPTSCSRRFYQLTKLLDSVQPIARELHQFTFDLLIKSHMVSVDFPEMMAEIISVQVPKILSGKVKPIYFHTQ
Procedure: Conventional Western blot assay was performed to evaluate the effects of the compounds of the present disclosure on the expression of target proteins in cells.
(1) Cell Seeding and Protein Harvesting: The selected cells were processed according to the cell seeding procedure and protein harvesting procedure in Table II-2.
(2) To the collected supernatant, 5×SDS sample loading buffer was added, followed by denaturation at 95 °C for 5 minutes. The denatured samples were then separated by SDS-PAGE electrophoresis on a polyacrylamide gel. Proteins were transferred to a nitrocellulose membrane (0.45 μm NC membrane), blocked with blocking buffer at room temperature for 1 hour, and subjected to antibody incubation and development procedures according to the antibody manufacturer's instructions (Cell Signaling Technology).
Half-Maximal Degradation Concentration value (the drug concentration required for degrading proteins by 50%, abbreviated as DC50) reads method: comparing the grayscale values of Western blot bands from drug-treated samples with those from blank DMSO-treated controls, and identifying the drug concentration range at which the grayscale value is half that of the DMSO-treated control bands.
DC50 values can be calculated using ImageJ software to measure grayscale values of Western blot bands from drug-treated samples. The concentration-response curve is fitted to estimate the drug concentration corresponding to half the grayscale value.
Target protein remaining (%) refers to the percentage of target protein remaining in cells after treatment with protein degrader compounds.
Calculation method for target protein remaining (%): Use ImageJ software to measure grayscale values of Western blot bands from drug (protein degrader)-treated samples. The grayscale value of drug-treated bands is divided by that of internal control protein bands, and the resulting quotient is normalized to obtain the relative percentage of remaining target protein after protein degrader treatment.
Target protein degradation rate (%)=1−target protein remaining (%).

[5] = test system: Human lung cancer cell line (H292); assay: Inhibition of H292 cell proliferation (CellTiter luminescent viability); conditions: NCI-H292, H292 cell; for inhibition at 0.01 µM: 10 nM, read-out: Inhibition Rate at 10 nM (%); for inhibition at 0.5 µM: 500 nM, read-out: Inhibition Rate at 500 nM (%)
[6] = Table IG3, FAK inhibitor-based, MDA-MB-231, 10 nM, 96 hours
[7] = Table IG3, FAK inhibitor-based, MDA-MB-231, 500 nM, 96 hours
[8] = Table IG2, FAK inhibitor-based, MV-4-11, 10 nM, 96 hours
[9] = Table IG2, FAK inhibitor-based, MV-4-11, 500 nM, 96 hours

| SMILES | inhibition at 0.01 µM [1, 6] [%] | inhibition at 0.5 µM [1, 7] [%] | inhibition at 0.01 µM [2] [%] | inhibition at 0.5 µM [2] [%] | inhibition at 0.01 µM [3, 8] [%] | inhibition at 0.5 µM [3, 9] [%] | Degradation of substrate protein AR (substrate protein remaining %) [4] | further results |
| --- | --- | --- | --- | --- | --- | --- | --- | --- |
| CNC(=O)c1ccc(Nc2ncc(C(F)(F)F)c(NCc3nccnc3N(C)S(C)(=O)=O)n2)cc1 [Defactinib, reference compound] | 30 to 40 | 30 to 40 | 5 to 10 | 5 to 10 | 5 to 10 | 60 to 70 |  |  |
| N#Cc1ccc(O[C@H]2CC[C@H](NC(=O)c3ccc(N4CCC(CN5CCN(c6ccc7c(c6)C(=O)N(N6CCC(=O)NC6=O)C7=O)CC5)CC4)nn3)CC2)cc1Cl [GT-05225, N-((1r,4r)-4-(3-chloro-4-cyanophenoxy)cyclohexyl)-6-(4-((4-(2-(2,4-dioxotetrahydropyrimidin-1(2H)-yl)-1,3-dioxoisoindolin-5-yl)piperazin-1-yl)methyl)piperidin-1-yl)pyridazine-3-carboxamide] |  |  |  |  |  |  | A (0%≤substrate protein remaining %≤80%) |  |
| CC1(C)[C@H](NC(=O)c2ccc(N3CCC(CN4CCN(c5ccc6c(c5F)C(=O)N(N5CCC(=O)NC5=O)C6=O)CC4)CC3)nc2)C(C)(C)[C@H]1Oc1ccc(C#N)c(Cl)c1 [GT-05828, N-((1r,3r)-3-(3-chloro-4-cyanophenoxy)-2,2,4,4-tetramethylcyclobutyl)-6-(4-((4-(2-(2,4-dioxotetrahydropyrimidin-1(2H)-yl)-4-fluoro-1,3-dioxoisoindolin-5-yl)piperazin-1-yl)methyl)piperidin-1-yl)nicotinamide] |  |  |  |  |  |  | A (0%≤substrate protein remaining %≤80%) |  |
| Cc1ccc(-c2c(C)noc2C)cc1N(CC1CCN(Cc2ccc3c(c2)CN(N2CCC(=O)NC2=O)C3=O)CC1)c1ccc(C2(C#N)CC2)cc1 [GT-06409, 1-(4-((5-(3,5-dimethylisoxazol-4-yl)-2-methylphenyl)((1-((2-(2,4-dioxotetrahydropyrimidin-1(2H)-yl)-1-oxoisoindolin-5-yl)methyl)piperidin-4-yl)methyl)amino)phenyl)cyclopropane-1-carbonitrile] |  |  |  |  |  |  | A (0%≤substrate protein remaining %≤80%) |  |
| NCc1ccc2c(c1)CN(N1CCC(=O)NC1=O)C2=O [GT-08118, 1-(5-(aminomethyl)-1-oxoisoindolin-2-yl)dihydropyrimidine-2,4(1H, 3H)-dione] |  |  |  |  |  |  |  | inhibition at 0.01 µM ([1]; MDA-MB-231 cell, 10 nM): 20 to 30%; inhibition at 0.5 µM ([1]; MDA-MB-231 cell, 500 nM): 20 to 30%; inhibition at 0.01 µM ([3]; MV-4-11 cell, 10 nM): 40 to 50%; inhibition at 0.5 µM ([3]; MV-4-11 cell, 500 nM): 50 to 60%; inhibition at 0.01 µM [5]: 20 to 30%; inhibition at 0.5 µM [5]: 20 to 30% |
| CN(c1nccnc1CNc1nc(Nc2ccc(N3CCC(N4CCN(CC5CCN(c6cccc7c6C(=O)N(N6CCC(=O)NC6=O)C7=O)CC5)CC4)CC3)cc2)ncc1C(F)(F)F)S(C)(=O)=O [GT-08245, N-(3-(((2-((4-(4-(4-((1-(2-(2,4-dioxotetrahydropyrimidin-1(2H)-yl)-1,3-dioxoisoindolin-4-yl)piperidin-4-yl)methyl)piperazin-1-yl)piperidin-1-yl)phenyl)amino)-5-(trifluoromethyl)pyrimidin-4-yl)amino)methyl)pyrazin-2-yl)-N-methylmethanesulfonamide] | 30 to 40 | 80 to 100 | 5 to 10 | 80 to 100 | 20 to 30 | 80 to 100 |  |  |
| CN(c1cccc(CNc2nc(Nc3ccc(N4CCC(N5CCN(CC6CCN(c7cccc8c7C(=O)N(N7CCC(=O)NC7=O)C8=O)CC6)CC5)CC4)cc3)ncc2C(F)(F)F)c1)S(C)(=O)=O [GT-08248, N-(3-(((2-((4-(4-(4-((1-(2-(2,4-dioxotetrahydropyrimidin-1(2H)-yl)-1,3-dioxoisoindolin-4-yl)piperidin-4-yl)methyl)piperazin-1-yl)piperidin-1-yl)phenyl)amino)-5-(trifluoromethyl)pyrimidin-4-yl)amino)methyl)phenyl)-N-methylmethanesulfonamide] | 20 to 30 | 70 to 80 | 30 to 40 | 60 to 80 | 20 to 30 | 80 to 100 |  |  |
| Nc1cccc2c1CN(C1CCC(=O)NC1=O)C2=O (stereo not drawn) [Lenalidomide, lenalidomide, reference compound] |  |  |  |  |  |  |  | inhibition at 0.01 µM ([1]; MDA-MB-231 cell, 10 nM): 0 to 5%; inhibition at 0.5 µM ([1]; MDA-MB-231 cell, 500 nM): 0 to 5%; inhibition at 0.01 µM ([3]; MV-4-11 cell, 10 nM): 20 to 30%; inhibition at 0.5 µM ([3]; MV-4-11 cell, 500 nM): 10 to 15%; inhibition at 0.01 µM [5]: 15 to 20%; inhibition at 0.5 µM [5]: 0 to 5% |
| CNC(=O)c1ccccc1Nc1cc(Nc2ccc(N3CCOCC3)cc2OC)ncc1C(F)(F)F [PND-1186, reference compound] | 30 to 40 | 40 to 50 | 5 to 10 | 20 to 30 | 5 to 10 | 60 to 70 |  |  |
